Data set [1] deals with influenza A virus A/HK/1/68 (subtype H3N2). As to the kind of experiment: Influenza A virus-induced CPE inhibition assay in MDCK cells (A/HK/1/68). The data set is classed as cell-based. Conditions: H3N2, 48 h, maximum 100 µM, n.a. = not active, read-out: IC50 (IAV) HK/1/68.
Data set [2] concerns influenza A virus A/Jena/8178/09 (subtype A(H1N1)pdm09). As to the kind of experiment: Influenza A virus-induced CPE inhibition assay in MDCK cells (A/Jena/8178/09). The data set is classed as cell-based. The note with it: A(H1N1)pdm09, 48 h, maximum 100 µM, n.a. = not active, read-out: IC50 (IAV) Jena/8178.
Data set [3] has as its system neuraminidase of influenza A virus (IAV NA). As to the kind of experiment: Human erythrocyte-based (hemagglutination-based) viral neuraminidase inhibition assay. Format: biochemical, influenza A virus A/Jena/8178/09. The note with it: human erythrocytes, 37 °C for 24 h, maximum 100 µM for test compounds.
Data set [4] has as its target T1, neuraminidase NanA of S. pneumoniae strain DSM20566 (Streptococcus pneumoniae, UniProt P62575). The note with it: Published; cited from earlier work.
In the next data set the target is viral hemagglutinin (Influenza A virus, UniProt C3W5S1). As to the kind of experiment: Human erythrocyte-based assay, inhibition of viral hemagglutinin-induced hemagglutination at 4 °C. The note with it: human erythrocytes, influenza A virus A/Jena/8178/09. The data set is classed as biochemical.
Chain of viral hemagglutinin (C3W5S1 18-344 limits assumed): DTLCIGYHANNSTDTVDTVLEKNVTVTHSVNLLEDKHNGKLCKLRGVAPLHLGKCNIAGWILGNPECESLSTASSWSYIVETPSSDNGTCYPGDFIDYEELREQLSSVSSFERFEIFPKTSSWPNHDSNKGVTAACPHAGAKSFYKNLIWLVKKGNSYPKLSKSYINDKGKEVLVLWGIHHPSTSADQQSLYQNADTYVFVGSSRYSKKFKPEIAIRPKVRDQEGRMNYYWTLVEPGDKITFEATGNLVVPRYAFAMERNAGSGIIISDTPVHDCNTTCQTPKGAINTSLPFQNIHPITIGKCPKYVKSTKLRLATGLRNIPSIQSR
Chain of viral hemagglutinin (C3W5S1 345-566 limits assumed): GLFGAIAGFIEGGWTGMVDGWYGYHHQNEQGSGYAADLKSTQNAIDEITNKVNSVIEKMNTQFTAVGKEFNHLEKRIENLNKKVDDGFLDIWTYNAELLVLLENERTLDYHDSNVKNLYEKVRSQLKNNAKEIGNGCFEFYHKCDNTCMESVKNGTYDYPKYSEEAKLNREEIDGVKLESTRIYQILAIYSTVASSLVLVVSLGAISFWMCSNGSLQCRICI
A further data set is described as follows: in vitro. Conditions: dog.
The target in data set [5] is T1, neuraminidase NanA of S. pneumoniae strain DSM20566. As to the kind of experiment: Lectin-based hemagglutination NA inhibition assay with pneumococcal neuraminidase. The note with it: ethanol-precipitated proteins of S. pneumoniae DSM20566, lectin-based hemagglutination assay. Format: biochemical.
In data set [6] the test system is S. pneumoniae DSM20566. As to the kind of experiment: Planktonic growth inhibition, microtiter broth microdilution assay. Format: cell-based, Streptococcus pneumoniae. Conditions: S. pneumoniae DSM20566, 18 h, OD 620 nm, maximum 50 μM; read-out: IC50 Planktonic growth.
Data set [7] deals with S. pneumoniae DSM20566. As to the kind of experiment: Biofilm formation inhibition assay (crystal violet). The data set is classed as cell-based, Streptococcus pneumoniae. The note with it: S. pneumoniae DSM20566, 24 h, crystal violet, maximum 50 μM; read-out: IC50 Biofilm formation.
Another data set deals with MDCK cells. Conditions: read-out: CC50 (MDCK), 72 h incubation, maximum 100 µM.

pIC50: −log10 of the molar value. ≈ marks a conversion by molar mass, not a printed value. Where “and” joins values, the source holds several entries; their conditions need not be identical. Identical values can stand only once. Like-named read-outs stand apart in the source and are kept apart here. Marks after values point to notes of the source that are not given here.

T1 sequence (P62575 54-1035): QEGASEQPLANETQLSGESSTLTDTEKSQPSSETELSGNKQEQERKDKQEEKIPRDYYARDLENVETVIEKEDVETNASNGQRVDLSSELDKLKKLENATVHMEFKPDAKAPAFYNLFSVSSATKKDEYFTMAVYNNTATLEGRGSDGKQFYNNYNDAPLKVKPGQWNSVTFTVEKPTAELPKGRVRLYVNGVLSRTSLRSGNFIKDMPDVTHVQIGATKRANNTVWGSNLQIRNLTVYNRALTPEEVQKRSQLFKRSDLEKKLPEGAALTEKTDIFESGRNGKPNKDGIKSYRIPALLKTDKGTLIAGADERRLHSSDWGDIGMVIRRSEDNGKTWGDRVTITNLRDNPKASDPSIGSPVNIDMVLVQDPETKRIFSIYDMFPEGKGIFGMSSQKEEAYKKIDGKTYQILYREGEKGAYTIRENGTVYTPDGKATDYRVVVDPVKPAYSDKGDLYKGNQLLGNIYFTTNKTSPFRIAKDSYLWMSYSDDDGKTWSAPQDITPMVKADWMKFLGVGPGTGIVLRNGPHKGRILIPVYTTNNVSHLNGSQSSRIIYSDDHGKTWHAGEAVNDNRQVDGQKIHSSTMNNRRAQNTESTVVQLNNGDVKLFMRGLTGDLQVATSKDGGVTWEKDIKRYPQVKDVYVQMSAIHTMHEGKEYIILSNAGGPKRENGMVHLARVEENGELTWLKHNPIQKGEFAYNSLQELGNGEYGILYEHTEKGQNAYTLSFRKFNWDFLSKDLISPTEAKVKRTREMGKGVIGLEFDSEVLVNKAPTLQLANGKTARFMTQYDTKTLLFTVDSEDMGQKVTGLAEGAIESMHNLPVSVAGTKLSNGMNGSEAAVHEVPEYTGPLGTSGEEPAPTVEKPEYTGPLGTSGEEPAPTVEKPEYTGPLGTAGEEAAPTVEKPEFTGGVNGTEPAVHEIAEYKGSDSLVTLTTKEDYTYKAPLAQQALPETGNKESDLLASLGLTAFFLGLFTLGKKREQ

Take `CCOC(=O)C1=C[C@@H](OC(CC)CC)[C@H](NC(C)=O)[C@@H](N)C1` [Oseltamivir, oseltamivir, reference compound]: the pIC50 in [1] was 8.40; in data set [2], 6.85. In data set [3], the “MIC IAV NA (minimum neuraminidase inhibitory concentration)” value is 1.97 µM (≈ 0.615 µg/mL). Besides, the “MIC S.p. NanA (minimum neuraminidase inhibitory concentration)” value in data set [4] is reported as 2.08 ^a μM.
`CCOC(=O)c1c(C)[nH]c2c1cc(OC(C)=O)c1c2c(-c2ccc(N)cc2)nn1-c1ccccc1` [Compound 13]: the pIC50 in data set [1] (Influenza A virus) is 5.03; in data set [2] (Influenza A virus) it was 4.85. For the same compound, in data set [3], the “MIC IAV NA (minimum neuraminidase inhibitory concentration)” value turned out to be 14.20 µM (≈ 6.65 µg/mL). Moreover, the “Inhibition of hemagglutination (concentration)” value on viral hemagglutinin was 31.6 µM. For the same compound, the CC50 at 72 h in “in vitro” is greater than 100 µM.
As for “5-Hydroxy-3-ethoxycarbonyl-2-methyl-6-phenyl-8-[4-(trifluoromethyl)phenyl]-pyrrolo[2,3-e]indazole [Compound 6h]”, the pIC50 in [1] is 4.52; in data set [2], 4.61; in the data set on S. pneumoniae DSM20566 [6] it was 4.30; in the data set with S. pneumoniae DSM20566 [7] it was 4.40. Further, the “MIC IAV NA (minimum neuraminidase inhibitory concentration)” value in data set [3] worked out at 24.40 µM. The “MIC S.p. NanA (minimum neuraminidase inhibitory concentration)” value in [5] was 10.0 µM and 10.00 µM. Also, in the data set with MDCK cells, the CC50 was greater than 100 µM.
